Experiment [1] has as its target T1, h-meprin β (Homo sapiens, UniProt Q16820).
T1 sequence (Q16820 62-701): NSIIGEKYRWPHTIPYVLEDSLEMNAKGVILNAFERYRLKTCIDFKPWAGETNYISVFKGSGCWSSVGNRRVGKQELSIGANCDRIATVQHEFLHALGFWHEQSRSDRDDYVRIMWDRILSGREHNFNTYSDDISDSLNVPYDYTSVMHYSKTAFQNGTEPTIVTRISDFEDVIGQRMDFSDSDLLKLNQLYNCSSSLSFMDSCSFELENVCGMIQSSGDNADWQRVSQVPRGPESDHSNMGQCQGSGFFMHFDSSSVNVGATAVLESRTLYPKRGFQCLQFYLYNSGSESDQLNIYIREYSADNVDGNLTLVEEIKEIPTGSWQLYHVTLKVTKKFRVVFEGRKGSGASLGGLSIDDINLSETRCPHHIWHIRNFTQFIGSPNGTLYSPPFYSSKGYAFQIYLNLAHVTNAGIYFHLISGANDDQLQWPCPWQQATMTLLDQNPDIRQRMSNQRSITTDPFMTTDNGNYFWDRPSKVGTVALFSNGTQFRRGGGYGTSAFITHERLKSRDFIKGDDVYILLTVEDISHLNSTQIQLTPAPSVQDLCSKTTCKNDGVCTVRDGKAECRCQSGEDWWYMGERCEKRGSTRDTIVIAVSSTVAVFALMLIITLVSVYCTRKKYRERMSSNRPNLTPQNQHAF
As to the kind of experiment: coupled continuous fluorometric assay with auxiliary enzyme PtP and fluorogenic AMC substrates. In kind it is biochemical. Also on record: His6 (N); made in house; host or cells: Pichia pastoris strain X33. The protocol: (§1) The enzyme assay consisted of prolyl tripeptidyl aminopeptidase from Porphyromonas gingivalis, an appropriate amount of human h-meprin β or α and the chromogenic substrate KKGYVADAP-pNA (stock solution in assay buffer) in a final volume of 0.25 ml h-meprin β assay buffer (20 mM Tris-HCI; pH 7.5) or h-meprin α assay buffer (20 mM HEPES, 10 mM CaCl2, 0,05% Brij; pH 7.4). After 10 minutes preincubation, the reaction was started by addition of the substrate. Subsequently, absorption was measured at 405 nm for 20 minutes with the Tecan Genios Pro Reader (Tecan) at 30°C. PtP activity was determined using an absorption coefficient of 5717 mol/l, which was obtained from a standard curve of p-nitroaniline under assay conditions. A molecular mass of 79500 Da was used to calculate the Kcat value. Prolyl tripeptidyl aminopeptidase activity was measured utilizing the substrate DAP-pNA. In order to maintain conditions identical to those used in the h-meprin β assay, samples (250 µl) contained a final concentration of 0.2% (v/v) dimethyl sulfoxide. One unit is defined as the amount of enzyme that hydrolyses 1 µmol DAP-pNA per minute under the conditions described. The specific activity of the enzyme preparation was 7 units/mg.
Conversion of the fluorogenic substrate KKGYVADAP-AMC by PtP and h-meprin β was analyzed according to assay conditions as described for the chromogenic substrate. Fluorescence was measured at excitation/emission wavelengths of 380/460 nm. The fluorescence coefficient of 8.5×10^8 mol/l for DAP-AMC was calculated from a standard curve of 7-Amino-4-methylcoumarin under assay conditions.

In experiment [2] the target is T1, h-meprin β. As to the kind of experiment: coupled continuous spectrophotometric assay with auxiliary enzyme PtP and chromogenic pNA substrates. Also on record: His6 (N); made in house; host or cells: Pichia pastoris strain X33. The conditions noted are these: for Kcat / Kcat/KM (s^-1M^-1) / Km: hydrolysis of pNA substrate by meprin β, means ± S.D. It is filed as biochemical. The method, then:
as §1
(§2) In the first reaction of the substrate conversion, KKGYVADAP-pNA is cleaved to DAP-pNA by meprin α or β. The second reaction, the release of p-nitroaniline by PtP can be measured in this assay and correlates to the amount of released DAP-pNA by meprin. Based on these terms, a rate equation for irreversible coupled enzyme assays was first described by McClure, giving the opportunity of calculating the required amount of an auxiliary enzyme to minimize the time to reach steady-state conditions (McClure, W. R., Biochemistry. 1969, 8 (7), 2782-2786; Schilling, S., Hoffmann, T., Wermann, M., Heiser, U., Wasternack, C., Demuth, H.-U., Analytical biochemistry. 2002, 303 (1), 49-56, 10.1006/abio.2001.5560). The amount of auxiliary enzyme was calculated as follows (Eq. 1): V2 = −Km2 × ln(1−[DAP−pNA]t/[DAP−pNA]ss)/t. [formula]

In experiment [3] the target is T1, h-meprin β. The description is as above. In kind it is biochemical. Also on record: His6 (N, cleaved yes); made in house; host or cells: Pichia pastoris X33 (pPICZαC), protein harvested from the fermenter supernatant. The protocol: as §1, §2
For experiment [4], the target named is T1, h-meprin β. Details: His6 (N, cleaved yes); made in house; host or cells: Pichia pastoris X33 (pPICZαC), protein harvested from the fermenter supernatant. The conditions noted are these: fluorogenic substrate Abz-YVAEAPK(Dpn)G-OH; from Schlenzig et al. 2015; cited from earlier work.
The target in experiment [5] is T2, h-meprin α (Homo sapiens, UniProt Q16819).
T2 construct: His-tag (N); made in house; host or cells: Drosophila melanogaster S2 cells, stably transfected (pMT/BiP/V5-His C), protein harvested from the culture medium
T2 sequence (Q16819 66-746): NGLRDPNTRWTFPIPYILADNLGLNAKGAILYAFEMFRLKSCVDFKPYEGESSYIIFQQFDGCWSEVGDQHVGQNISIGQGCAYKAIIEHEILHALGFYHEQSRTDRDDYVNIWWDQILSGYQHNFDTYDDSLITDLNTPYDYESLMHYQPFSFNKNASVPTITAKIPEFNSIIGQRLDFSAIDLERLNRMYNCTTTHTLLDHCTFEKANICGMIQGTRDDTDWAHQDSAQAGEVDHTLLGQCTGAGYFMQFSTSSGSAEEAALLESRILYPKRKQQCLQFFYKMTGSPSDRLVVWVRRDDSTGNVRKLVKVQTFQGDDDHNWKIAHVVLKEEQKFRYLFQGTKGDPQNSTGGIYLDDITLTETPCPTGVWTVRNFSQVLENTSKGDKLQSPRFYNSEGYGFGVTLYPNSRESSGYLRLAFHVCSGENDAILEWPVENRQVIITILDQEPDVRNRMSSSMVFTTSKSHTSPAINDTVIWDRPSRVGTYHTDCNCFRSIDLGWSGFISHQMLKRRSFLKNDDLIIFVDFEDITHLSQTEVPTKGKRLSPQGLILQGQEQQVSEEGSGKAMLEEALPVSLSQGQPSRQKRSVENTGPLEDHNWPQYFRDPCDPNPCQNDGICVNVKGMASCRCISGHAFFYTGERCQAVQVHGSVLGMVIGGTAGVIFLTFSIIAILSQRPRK
Kind of experiment: coupled continuous spectrophotometric assay with auxiliary enzyme PtP and chromogenic substrate KKGYVADAP-pNA. It is filed as biochemical. The method, then: as §1, §2

Experiment [6] has as its target T2, h-meprin α. As to the kind of experiment: non-coupled assay with internally quenched fluorogenic substrate. It is filed as biochemical. The conditions noted are these: fluorogenic substrate Abz-YVADAPK(Dpn)G-OH; unpublished data.
Experiment [7] has as its target T1, h-meprin β. Details: His6 (N); made in house; host or cells: Pichia pastoris strain X33. The conditions noted are these: cited from earlier work; for substrate inhibition at concentrations above: internally quenched substrate, meprin β.
[8] abbreviates: hydrolysis of AMC substrate by meprin β, means ± S.D.
[9] abbreviates: Dixon plot, four substrate concentrations of KKGYVADAP-pNA.
Setting [10] is: chromogenic substrate KKGYVADAP-pNA, coupled continuous assay, means ± S.D.
[11] abbreviates: substrate KKGYVADAP-pNA, six inhibitor and four substrate concentrations.
The mark [12] stands for this setting: hydrolysis of internally quenched substrate by meprin β, from Schlenzig et al. 2015.

The text below walks through data of EP3635128B1, “CONTINUOUS SPECTROMETRIC ASSAYS FOR MEASURING MEPRIN ACTIVITY USING AN AUXILIARY ENZYME” (Vivoryon Therapeutics AG, priority 2017, dated 2018).

Read-outs that look alike come from different tables or passages of the source. Peptide text beside a SMILES is read from it. * marks the point of attachment. pNA = O=[N+]([O-])c1ccc(N*)cc1; AMC = Cc1cc(=O)oc2cc(N*)ccc12

Usually Km stands for the concentration of substrate that gives half-maximal velocity. The term IC50 denotes the midpoint of a concentration-inhibition curve. Broadly, the Ki is a measure of affinity in units of concentration, obtained from inhibition or displacement.

As to `CC(=O)N[C@@H](CCCCN)C(=O)N[C@@H](CCCCN)C(=O)NCC(=O)N[C@@H](Cc1ccc(O)cc1)C(=O)N[C@H](C(=O)N[C@@H](C)C(=O)N[C@@H](CC(=O)O)C(=O)N[C@@H](C)C(=O)N1CCC[C@H]1C(=O)Nc1ccc2c(C)cc(=O)oc2c1)C(C)C` [Ac-KKGYVADAP-AMC] (Ac-KKGYVADAP-{AMC}), on h-meprin β [1] (setting [8]), the “Kcat” value is 6.3 ± 1 s⁻¹, the “Kcat/KM (s^-1M^-1)” value is recorded as 10.0×10^4 ± 1.4×10^4 s^-1M^-1 and the Km is 64 µM.

As for `CC(=O)N[C@@H](CCCCN)C(=O)N[C@@H](CCCCN)C(=O)NCC(=O)N[C@@H](Cc1ccc(O)cc1)C(=O)N[C@H](C(=O)N[C@@H](C)C(=O)N[C@@H](CC(=O)O)C(=O)N[C@@H](C)C(=O)N1CCC[C@H]1C(=O)Nc1ccc([N+](=O)[O-])cc1)C(C)C` [Ac-KKGYVADAP-pNA] (Ac-KKGYVADAP-pNA), at h-meprin β [2], the “Kcat” value came to 20.0 ± 3.5 s⁻¹, the “Kcat/KM (s^-1M^-1)” value was 6.4x10^4 ± 2.5x10^4 s^-1M^-1 and the Michaelis-Menten constant (Km) is 360 µM.

For the compound `CC(=O)N[C@@H](CCCNC(=N)N)C(=O)NCC(=O)N[C@@H](CCCNC(=N)N)C(=O)NCC(=O)N[C@@H](Cc1ccc(O)cc1)C(=O)N[C@H](C(=O)N[C@@H](C)C(=O)N[C@@H](CC(=O)O)C(=O)N[C@@H](C)C(=O)N1CCC[C@H]1C(=O)Nc1ccc([N+](=O)[O-])cc1)C(C)C` [Ac-RGRGYVADAP-pNA] (Ac-RGRGYVADAP-pNA), on h-meprin β [2], the “Kcat” value was 19.9 ± 10.2 s⁻¹, the “Kcat/KM (s^-1M^-1)” value is 15.0×10^4±1.1×10^5 s^-1M^-1 and the Km was 140 µM.

Turning to `Cc1cc(=O)oc2cc(NC(=O)[C@@H]3CCCN3C(=O)[C@H](C)NC(=O)[C@H](CC(=O)O)NC(=O)[C@H](C)NC(=O)[C@@H](NC(=O)[C@H](Cc3ccc(O)cc3)NC(=O)CNC(=O)[C@H](CCCCN)NC(=O)[C@@H](N)CCCCN)C(C)C)ccc12` [KKGYVADAP-AMC, H-Lys-Lys-Gly-Tyr-Val-Ala-Asp-Ala-Pro-AMC] (H-KKGYVADAP-{AMC}), the substrate inhibition entry on h-meprin β [1] (at concentrations up to 2 mM) is reported as “no inhibitory effect”. Besides, at h-meprin β [1] (setting [8]), the “Kcat (s^-1)” value was 4.3 ± 6.1×10^-1 s^-1, the “Kcat/KM (s^-1M^-1)” value is recorded as 6.0×10^4 ± 1.6×10^4 s^-1M^-1 and the Km is 74 µM.

With `CC(C)[C@H](NC(=O)[C@H](Cc1ccc(O)cc1)NC(=O)CNC(=O)[C@H](CCCCN)NC(=O)[C@@H](N)CCCCN)C(=O)N[C@@H](C)C(=O)N[C@@H](CC(=O)O)C(=O)N[C@@H](C)C(=O)N1CCC[C@H]1C(=O)Nc1ccc([N+](=O)[O-])cc1` [KKGYVADAP-pNA, H-Lys-Lys-Gly-Tyr-Val-Ala-Asp-Ala-Pro-pNA] (H-KKGYVADAP-pNA), the substrate inhibition entry at h-meprin β [2] (at concentrations up to 2 mM) is “no inhibitory effect”. Moreover, at h-meprin β [2], the “Kcat” value amounted to 20 ± 4.1 s⁻¹, the “Kcat/KM (s^-1M^-1)” value is 11.0×10^4 ± 4.8×10^3 s^-1M^-1 and the Km was 180 µM.

Regarding `CCCCC[C@H](CC(=O)NO)C(=O)N[C@H](C(=O)N1CCC[C@H]1CO)C(C)C` [actinonin], the mode of inhibition result at h-meprin β [3] (setting [9]) and on h-meprin α [5] (setting [9]) was “competitive” in each case. The IC50 is 760 nM against h-meprin β [3] (setting [10]), 440 nM on h-meprin β [4], 12 nM at h-meprin α [5] (setting [10]) and 9.6 nM on h-meprin α [6]. The figures for the Ki on h-meprin β [3] (setting [11]) and on h-meprin α [5] (setting [11]) were 270 nM and 3.2 nM, respectively.

Abz-MGWMDEIDK(Dnp)SG-OH [OCK+]: at h-meprin β [7], the “substrate inhibition at concentrations above” value was “above 40 µM”.

For Abz-YVAEAPK(Dpn)G-OH, at h-meprin β [7] (setting [12]), the “Kcat” value was 35.0 ± 2.5 s⁻¹, the “Kcat/KM (s^-1M^-1)” value is 129.0×10^4 ± 3.0×10^4 s^-1M^-1 and the Km was 27 µM. Also, the “substrate inhibition at concentrations above” value at h-meprin β [7] is “above 100 µM”.
